What was measured:
H1650 = assay: Inhibition of tumor cells, MTS method; format: cell-based; details: Homo sapiens, NCI-H1650, 72 hours
Method: (§1) (1) Compounds: in vitro studies the test compounds was dissolved in 100% DMSO and diluted until the final concentration of DMSO was 0.1%. The 0.1% (v/v) DMSO was added into culture medium as solvent control. 9 concentration gradients were tested and each gradient was repeated twice. (2) Tumor cell lines: the tumor cell lines were cultivated in RPMI10 culture medium containing 10% fetal calf serum in incubator at 37° C. in a 5% CO2 air incubator. The tested tumor cell lines were: BT474, MDA-MB-231, SK-Br-3, A431, H292, H1975, HCC827, A549, H1650 and H1734. (3) MTS method: cells were seeded into 96-well plate to give a density of about 3000 cells per well, and incubated overnight in a humidified incubator at 37° C. In the next day, the test compounds were added to the wells and further incubated for 72 hours. The cell activity was detected using MTS. IC50 was calculated (the concentration of a compound that is required for 50% inhibition of the cell growth versus the DMSO control group, using nonlinear regression analysis of software GraphPad Prism). […] In a 96-well plate, each test compound was tested at 9 dosage concentrations and each dosage was made in triplicate. Samples were added in 100 μL/well. Cell control and negative control wells contained diluents instead of compounds. Except the negative control well, 100 μL cell suspension of complete medium was added into each test well, wherein corresponding cell numbers were included to assure that the cells in cell control well just cover the bottom of the well as the required incubation time was reached. The plate was incubated in a CO2 incubator at 37° C. for 48 hours. The liquid in test wells was removed by pipetting. 100 μL CCK-8 (Cell counting Kit-8, purchased from DOJINDO Molecular Technologies) detection liquid (containing 10% CCK-8, 5% FBS corresponding medium) was added into each test well, then the plate was incubated in a CO2 incubator under at 37° C. for 3 hours. OD value was detected by ELIASA at A450 nm. Cell viability percentage (%)=(O.D. test compound-O.D. blank)/(O.D. control-O.D. blank)×100. Mean value was calculated for each 3 repeated wells, and IC50 was calculated using nonlinear regression (fitted curve) data analysis method.

BT474 = assay: Inhibition of tumor cells, MTS method; format: cell-based; details: Homo sapiens, BT-474, 72 hours
Method: as §1

HCC827 = assay: Inhibition of tumor cells, MTS method; format: cell-based; details: Homo sapiens, 72 hours
Method: as §1

A431 = assay: Inhibition of tumor cells, MTS method; format: cell-based; details: Homo sapiens, A-431, 72 hours
Method: as §1

H1734 = assay: Inhibition of tumor cells, MTS method; format: cell-based; details: Homo sapiens, NCI-H1734, 72 hours
Method: as §1

H1975 = assay: Inhibition of tumor cells, MTS method; format: cell-based; details: Homo sapiens, NCI-H1975, 72 hours
Method: as §1

A549 = assay: Inhibition of tumor cells, MTS method; format: cell-based; details: Homo sapiens, 72 hours
Method: as §1

SK-Br-3 = assay: Inhibition of tumor cells, MTS method; format: cell-based; details: Homo sapiens, 72 hours
Method: as §1

H292 = assay: Inhibition of tumor cells, MTS method; format: cell-based; details: Homo sapiens, NCI-H292, 72 hours
Method: as §1

[1] = Long-term toxicity experiment (28 days) in dogs; format: in vivo
Method: Experiment Animals: rats, male, 6-8 weeks of age, body weight: 180-250 g; dogs, male, about 24 months, body weight: 7-10 kg.
Preparation of sample: in rat's experiments the mixed formulation powder of the compound Ie was formulated into 0.1, 0.3 and 1 mg/mL homogeneous suspension for use; administration route: oral administration; […]. In dog's experiments the tablets of compound Ie were fed to dogs. […].
Sample collection: blood was collected at the time points of 1, 10, 20 and 28 days respectively, about 120-200 μL whole blood was collected from 3 animals at each time point. Blood was collected at 1 h, 4 h, 8 h and 24 h after administration.
Sample analysis: the collected samples were detected by LC-MS/MS, and the instrument model was SHIMADZU20 A-API4000.
Pharmacokinetic data analysis: the obtained plasma concentration data were fitted and calculated using WinNolin according to non-compartment model.

EGFR kinases = EGFR kinases (Homo sapiens, UniProt P00533); assay: Reversible inhibition test of enzyme activity of EGFR kinases; format: biochemical
Sequence of EGFR kinases (P00533 25-1210): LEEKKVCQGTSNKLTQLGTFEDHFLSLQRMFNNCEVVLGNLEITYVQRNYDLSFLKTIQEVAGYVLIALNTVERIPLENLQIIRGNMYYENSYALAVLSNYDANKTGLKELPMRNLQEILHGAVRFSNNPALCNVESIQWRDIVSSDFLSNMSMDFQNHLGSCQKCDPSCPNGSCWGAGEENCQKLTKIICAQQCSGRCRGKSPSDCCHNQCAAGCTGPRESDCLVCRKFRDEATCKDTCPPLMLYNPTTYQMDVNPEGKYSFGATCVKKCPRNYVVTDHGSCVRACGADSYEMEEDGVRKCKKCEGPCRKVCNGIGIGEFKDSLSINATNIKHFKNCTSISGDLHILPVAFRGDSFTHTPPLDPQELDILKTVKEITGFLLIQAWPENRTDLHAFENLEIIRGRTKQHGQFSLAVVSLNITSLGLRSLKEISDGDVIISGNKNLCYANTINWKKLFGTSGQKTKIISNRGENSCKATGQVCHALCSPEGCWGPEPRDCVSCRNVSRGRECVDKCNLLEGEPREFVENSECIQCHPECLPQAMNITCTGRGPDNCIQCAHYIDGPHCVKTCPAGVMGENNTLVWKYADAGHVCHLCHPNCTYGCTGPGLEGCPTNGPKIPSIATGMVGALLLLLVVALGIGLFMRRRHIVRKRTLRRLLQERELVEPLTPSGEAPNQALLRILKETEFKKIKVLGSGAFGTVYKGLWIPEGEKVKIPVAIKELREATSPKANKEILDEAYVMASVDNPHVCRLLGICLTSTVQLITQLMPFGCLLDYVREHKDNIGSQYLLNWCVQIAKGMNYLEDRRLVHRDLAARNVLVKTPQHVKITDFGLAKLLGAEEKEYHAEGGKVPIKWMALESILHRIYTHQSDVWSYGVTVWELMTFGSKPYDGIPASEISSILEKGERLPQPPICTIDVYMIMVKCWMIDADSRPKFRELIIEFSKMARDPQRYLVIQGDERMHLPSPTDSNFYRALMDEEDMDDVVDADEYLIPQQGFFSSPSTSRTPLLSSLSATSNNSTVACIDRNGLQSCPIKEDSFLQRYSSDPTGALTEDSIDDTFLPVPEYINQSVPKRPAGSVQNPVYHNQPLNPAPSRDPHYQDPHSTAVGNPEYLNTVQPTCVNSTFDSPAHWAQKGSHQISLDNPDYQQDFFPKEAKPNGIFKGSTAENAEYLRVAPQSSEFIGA

EGFR^T790M = EGFR^T790M (Homo sapiens, UniProt P00533, T790M); assay: Caliper Mobility Shift Assay, mutant EGFR kinase; format: biochemical; details: read-out: Inhibition of Kinase Activity (IC50, nM) EGFR^T790M
Sequence of EGFR^T790M (P00533 25-1210 T790M): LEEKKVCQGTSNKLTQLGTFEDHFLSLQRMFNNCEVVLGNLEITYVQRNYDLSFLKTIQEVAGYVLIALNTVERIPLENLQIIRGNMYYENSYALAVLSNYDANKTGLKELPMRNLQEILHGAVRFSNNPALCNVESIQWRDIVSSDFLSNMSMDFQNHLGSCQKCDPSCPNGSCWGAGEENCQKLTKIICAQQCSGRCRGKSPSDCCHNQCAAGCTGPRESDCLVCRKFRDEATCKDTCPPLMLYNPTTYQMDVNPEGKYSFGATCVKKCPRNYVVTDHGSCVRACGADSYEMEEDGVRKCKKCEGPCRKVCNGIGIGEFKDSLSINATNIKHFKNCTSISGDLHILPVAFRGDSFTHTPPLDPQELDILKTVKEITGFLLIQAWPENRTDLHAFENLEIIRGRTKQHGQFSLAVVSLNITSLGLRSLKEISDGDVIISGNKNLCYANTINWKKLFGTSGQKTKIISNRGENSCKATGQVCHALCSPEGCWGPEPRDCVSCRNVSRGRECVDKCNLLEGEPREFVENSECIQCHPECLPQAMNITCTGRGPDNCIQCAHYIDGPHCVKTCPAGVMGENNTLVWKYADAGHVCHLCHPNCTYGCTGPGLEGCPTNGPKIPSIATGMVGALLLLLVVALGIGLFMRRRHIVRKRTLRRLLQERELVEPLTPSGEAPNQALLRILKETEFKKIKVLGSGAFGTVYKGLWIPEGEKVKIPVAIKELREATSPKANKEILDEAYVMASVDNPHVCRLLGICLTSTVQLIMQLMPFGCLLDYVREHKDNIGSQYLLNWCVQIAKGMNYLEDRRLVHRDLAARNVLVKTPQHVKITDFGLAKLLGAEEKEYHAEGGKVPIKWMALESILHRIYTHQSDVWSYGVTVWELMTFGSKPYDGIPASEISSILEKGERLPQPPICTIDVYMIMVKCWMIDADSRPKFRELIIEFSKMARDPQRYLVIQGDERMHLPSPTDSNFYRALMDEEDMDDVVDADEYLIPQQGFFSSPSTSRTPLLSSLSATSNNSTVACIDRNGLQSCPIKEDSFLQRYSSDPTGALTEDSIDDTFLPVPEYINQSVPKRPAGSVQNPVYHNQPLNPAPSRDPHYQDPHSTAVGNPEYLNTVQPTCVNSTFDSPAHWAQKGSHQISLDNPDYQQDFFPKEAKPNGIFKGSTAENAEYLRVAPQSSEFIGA

HER2 = HER2 (Homo sapiens, UniProt P04626); assay: Caliper Mobility Shift Assay, inhibition of HER2 kinase activity; format: biochemical
Sequence of HER2 (P04626 23-1255): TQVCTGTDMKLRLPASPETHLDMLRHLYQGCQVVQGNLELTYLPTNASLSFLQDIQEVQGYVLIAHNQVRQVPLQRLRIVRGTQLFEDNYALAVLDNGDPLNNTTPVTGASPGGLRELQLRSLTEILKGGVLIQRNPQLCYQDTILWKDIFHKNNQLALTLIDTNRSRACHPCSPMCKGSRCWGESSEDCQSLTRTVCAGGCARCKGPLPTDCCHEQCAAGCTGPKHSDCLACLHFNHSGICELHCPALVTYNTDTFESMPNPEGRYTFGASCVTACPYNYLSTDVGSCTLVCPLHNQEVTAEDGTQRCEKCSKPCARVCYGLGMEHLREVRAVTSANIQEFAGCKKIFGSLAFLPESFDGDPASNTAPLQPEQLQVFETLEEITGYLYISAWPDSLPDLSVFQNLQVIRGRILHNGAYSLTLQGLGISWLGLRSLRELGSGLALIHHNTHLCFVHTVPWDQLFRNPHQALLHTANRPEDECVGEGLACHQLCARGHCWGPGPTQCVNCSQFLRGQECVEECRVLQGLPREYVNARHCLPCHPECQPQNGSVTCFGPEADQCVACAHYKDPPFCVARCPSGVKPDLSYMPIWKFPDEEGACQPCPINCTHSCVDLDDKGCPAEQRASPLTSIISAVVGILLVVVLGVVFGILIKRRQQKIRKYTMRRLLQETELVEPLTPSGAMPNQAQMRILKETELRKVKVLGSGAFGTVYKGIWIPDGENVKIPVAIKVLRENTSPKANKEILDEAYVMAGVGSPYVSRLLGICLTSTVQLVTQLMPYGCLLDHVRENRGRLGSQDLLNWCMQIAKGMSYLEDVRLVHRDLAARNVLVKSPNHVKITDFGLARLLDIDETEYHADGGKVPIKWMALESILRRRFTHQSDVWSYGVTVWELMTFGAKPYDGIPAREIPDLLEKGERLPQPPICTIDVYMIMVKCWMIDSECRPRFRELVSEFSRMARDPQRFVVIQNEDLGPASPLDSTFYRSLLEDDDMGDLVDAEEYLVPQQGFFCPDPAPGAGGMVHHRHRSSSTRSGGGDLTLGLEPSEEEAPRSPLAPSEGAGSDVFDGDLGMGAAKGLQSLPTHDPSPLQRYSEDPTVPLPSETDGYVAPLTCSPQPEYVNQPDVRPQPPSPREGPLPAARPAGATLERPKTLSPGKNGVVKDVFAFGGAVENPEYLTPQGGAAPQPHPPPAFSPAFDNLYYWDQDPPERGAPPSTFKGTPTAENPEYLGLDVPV

EGFR = EGFR (Homo sapiens, UniProt P00533); assay: Caliper Mobility Shift Assay, inhibition of EGFR kinase activity; format: biochemical
Sequence of EGFR (P00533 25-1210): as the sequence (P00533 25-1210) above

EGFR^L858R = EGFR^L858R (Homo sapiens, UniProt P00533, L858R); assay: Caliper Mobility Shift Assay, mutant EGFR kinase; format: biochemical; details: read-out: Inhibition of Kinase Activity (IC50, nM) EGFR^L858R

## CN(C)C/C=C/C(=O)Nc1cc2c(Nc3ccc(F)c(Cl)c3)ncnc2cc1OC(F)F [Compound Ie]
H1650
  IC50: 3.24 µM
BT474
  IC50: 0.034 µM
HCC827
  IC50: 0.002 µM
A431
  IC50: 0.652 µM
H1734
  IC50: 0.539 µM
H1975
  IC50: 0.8 µM
A549
  IC50: 3.72 µM
SK-Br-3
  IC50: 0.23 µM
H292
  IC50: 2.65 µM
[1]; dog, in vivo, 1 mg/kg
  toxicity reaction: No toxicity reaction
[1]; dogs, 5 mg/kg, 28 days, reaction of Afatinib group greater than compound Ie group
  toxicity reaction: toxicity reactions
EGFR kinases
  reversibility of inhibition of EGFR kinases: irreversibility
EGFR^T790M
  IC50: 4.6 nM
HER2
  IC50: 11.7 nM
EGFR
  IC50: 0.4 nM
  inhibitory effect on EGFR kinases relative to Afatinib, Neratinib and Gefitinib: over two times
EGFR^L858R
  IC50: 0.65 nM

Source: patent publication US20150065709A1, “Aminoquinazoline Derivative And Use Thereof In Preparing Anti-Malignant Tumor Medicament” (METABOMICS, INC, priority 2012, published 2015)
